Measurements as given in PMC9525273 (Nature Communications, 2022).
“And” between values parts separate entries of the source, which are not always exact repeats. Equal entries are not always repeated. Where two headings read alike, the source gives them in different places.

Assays:
[1] = system: extracellular T. gondii tachyzoites expressing TgATP4^G419S-HA; assay: [Na+]cyt measurement (SBFI), Na+ dysregulation; type: cell-based, Toxoplasma gondii; parameters: Final [Na+]cyt reached: unit not given here; settings: TgATP4G419S-HA; for IC50: Toxoplasma gondii
Method: (§1) The ratio of the fluorescence intensity recorded at 340 nm and 380 nm (with an emission wavelength of 515 nm) was converted to [Na^+]cyt using a calibration procedure that entailed suspending parasites in solutions of varying [Na^+] containing ionophores. Fluorescence measurements and calibrations were performed at 37 °C, either with individual 1 mL suspensions using a PerkinElmer LS 50B fluorescence spectrometer (for resting [Na^+]cyt measurements for which the data are shown in Supplementary Fig. 7) or in 96-well plates using a Tecan Infinite M1000 PRO plate reader with i-control (version 1.12) software (all other [Na^+]cyt measurements).

[2] = system: extracellular T. gondii tachyzoites expressing TgATP4^WT; assay: [Na+]cyt measurement (SBFI), Na+ dysregulation; type: cell-based, Toxoplasma gondii; parameters: Final [Na+]cyt reached: unit not given here
Method: as §1

[3] = system: PfATP4-mutant P. falciparum lines and their parents; settings: cited from earlier work

Question: For `N#Cc1cc(NC(=O)[C@H]2c3ccccc3C(=O)N(CC(F)(F)F)[C@@H]2c2cccnc2)ccc1F` [(+)-SJ733], which “Final [Na+]cyt reached” value ([1]; [(+)-SJ733] 19.5 nM, MEAN) is on record?
Answer: Its value is 11.4.

Question: What about the “Final [Na+]cyt reached” value ([1]; [(+)-SJ733] 39.1 nM, MEAN) of the same compound?
Answer: The value was 14.1.

Question: What about the “Final [Na+]cyt reached” value ([1]; [(+)-SJ733] 39.1 nM, single experiments) of the same compound?
Answer: The value was 15.8 and 12.1 and 14.4.

Question: What about the “Final [Na+]cyt reached” value ([1]; [(+)-SJ733] 78.1 nM, MEAN) of the same compound?
Answer: The value was 14.7.

Question: What about the “Final [Na+]cyt reached” value ([1]; [(+)-SJ733] 78.1 nM, single experiments) of the same compound?
Answer: Its value is 18.4 and 12.6 and 13.2.

Question: What about the “Final [Na+]cyt reached” value ([1]; [(+)-SJ733] 156.3 nM, MEAN) of the same compound?
Answer: Its value is 13.7.

Question: What about the “Final [Na+]cyt reached” value ([1]; [(+)-SJ733] 156.3 nM, single experiments) of the same compound?
Answer: Its value is 14.7 and 11.2 and 15.2.

Question: And the “Final [Na+]cyt reached” value ([1]; [(+)-SJ733] 312.5 nM, MEAN)?
Answer: Its value is 13.9.

Question: And the “Final [Na+]cyt reached” value ([1]; [(+)-SJ733] 312.5 nM, single experiments)?
Answer: The value was 15.6 and 11.4 and 14.7.

Question: What about the “Final [Na+]cyt reached” value ([1]; [(+)-SJ733] 625 nM, MEAN) of the same compound?
Answer: Its value is 13.0.

Question: What about the “Final [Na+]cyt reached” value ([1]; [(+)-SJ733] 625 nM, single experiments) of the same compound?
Answer: Its value is 14.4 and 12.2 and 12.5.

Question: And the “Final [Na+]cyt reached” value ([1]; [(+)-SJ733] 2500 nM, MEAN)?
Answer: Its value is 13.7.

Question: And the “Final [Na+]cyt reached” value ([1]; [(+)-SJ733] 2500 nM, single experiments)?
Answer: Its value is 15.4 and 12.6 and 13.0.

Question: What about the “Final [Na+]cyt reached” value ([1]; [(+)-SJ733] 5000 nM, MEAN) of the same compound?
Answer: The value was 13.4.

Question: What about the “Final [Na+]cyt reached” value ([1]; [(+)-SJ733] 5000 nM, single experiments) of the same compound?
Answer: Its value is 14.6 and 12.4 and 13.1.

Question: What about the “Final [Na+]cyt reached” value ([1]; [(+)-SJ733] 10000 nM, MEAN) of the same compound?
Answer: The value was 12.1.

Question: And the “Final [Na+]cyt reached” value ([1]; [(+)-SJ733] 10000 nM, single experiments)?
Answer: Its value is 13.0 and 11.9 and 11.5.

Question: What about the “Final [Na+]cyt reached” value ([1]; [(+)-SJ733] 20000 nM, MEAN) of the same compound?
Answer: The value was 12.6.

Question: What about the “Final [Na+]cyt reached” value ([1]; [(+)-SJ733] 20000 nM, single experiments) of the same compound?
Answer: The value was 13.7 and 11.8 and 12.3.

Question: And the “Final [Na+]cyt reached” value ([1]; [(+)-SJ733] 40000 nM, MEAN)?
Answer: The value was 11.6.

Question: And the “Final [Na+]cyt reached” value ([1]; [(+)-SJ733] 40000 nM, single experiments)?
Answer: The value was 12.7 and 10.4 and 11.7.

Question: And the IC50 ([1]; 1.5 h, ~90 min exposure, 37 °C, pH 7.1, read-out: IC50 for Na+ dysregulation)?
Answer: Its IC50 is over 40000 nM.

Question: And the IC50 ([1]; MEAN, source data of Table 1 (nM there), read-out: IC50 for Na+ dysregulation, MEAN)?
Answer: The IC50 was over 40000 nM.

Question: And the IC50 ([1]; single experiments, source data of Table 1 (nM there), read-out: IC50 for Na+ dysregulation)?
Answer: Its IC50 is over 40000 nM.

Question: And the IC50 ([2]; Toxoplasma gondii, 1.5 h, pH 7.1, WT T. gondii (TgATP4WT), ~90 min exposure, 37 °C, pH 7.1, mean ± SEM, read-out: IC50 for Na+ dysregulation)?
Answer: The IC50 was 5040 ± 572 nM.

Question: And the IC50 ([2]; Toxoplasma gondii, WT T. gondii, MEAN, source data of Table 1 (nM there), read-out: IC50 for Na+ dysregulation, MEAN)?
Answer: Its IC50 is 5040 nM.

Question: And the IC50 ([2]; Toxoplasma gondii, WT T. gondii, single experiments, source data of Table 1 (nM there), read-out: IC50 for Na+ dysregulation)?
Answer: The IC50 was 4900 nM.

Question: What about the “Final [Na+]cyt reached” value ([2]; WT T. gondii, [(+)-SJ733] 19.5 nM, MEAN) of the same compound?
Answer: The value was 11.8.

Question: And the “Final [Na+]cyt reached” value ([2]; WT T. gondii, [(+)-SJ733] 39.1 nM, MEAN)?
Answer: Its value is 11.7.

Question: What about the “Final [Na+]cyt reached” value ([2]; WT T. gondii, [(+)-SJ733] 78.1 nM, MEAN) of the same compound?
Answer: The value was 12.4.

Question: And the “Final [Na+]cyt reached” value ([2]; WT T. gondii, [(+)-SJ733] 156.3 nM, MEAN)?
Answer: The value was 13.8.

Question: What about the “Final [Na+]cyt reached” value ([2]; WT T. gondii, [(+)-SJ733] 312.5 nM, MEAN) of the same compound?
Answer: Its value is 15.1.

Question: What about the “Final [Na+]cyt reached” value ([2]; WT T. gondii, [(+)-SJ733] 625 nM, MEAN) of the same compound?
Answer: Its value is 18.3.

Question: And the “Final [Na+]cyt reached” value ([2]; WT T. gondii, [(+)-SJ733] 2500 nM, MEAN)?
Answer: The value was 32.1.

Question: And the “Final [Na+]cyt reached” value ([2]; WT T. gondii, [(+)-SJ733] 2500 nM, single experiments)?
Answer: The value was 21.7 and 37.9 and 34.1 and 34.6.

Question: And the “Final [Na+]cyt reached” value ([2]; WT T. gondii, [(+)-SJ733] 5000 nM, MEAN)?
Answer: Its value is 48.9.

Question: And the “Final [Na+]cyt reached” value ([2]; WT T. gondii, [(+)-SJ733] 5000 nM, single experiments)?
Answer: Its value is 41.9 and 51.4 and 51.0.

Question: And the “Final [Na+]cyt reached” value ([2]; WT T. gondii, [(+)-SJ733] 10000 nM, MEAN)?
Answer: The value was 65.1.

Question: What about the “Final [Na+]cyt reached” value ([2]; WT T. gondii, [(+)-SJ733] 10000 nM, single experiments) of the same compound?
Answer: The value was 65.8 and 64.6 and 71.3 and 58.7.

Question: And the “Final [Na+]cyt reached” value ([2]; WT T. gondii, [(+)-SJ733] 20000 nM, MEAN)?
Answer: Its value is 76.4.

Question: And the “Final [Na+]cyt reached” value ([2]; WT T. gondii, [(+)-SJ733] 20000 nM, single experiments)?
Answer: The value was 74.3 and 76.4 and 85.9 and 69.1.

Question: And the “Final [Na+]cyt reached” value ([2]; WT T. gondii, [(+)-SJ733] 40000 nM, MEAN)?
Answer: Its value is 81.2.

Question: And the “Final [Na+]cyt reached” value ([2]; WT T. gondii, [(+)-SJ733] 40000 nM, single experiments)?
Answer: The value was 81.0 and 95.3 and 67.2.

Question: What about the IC50 ([2]; WT T. gondii, single experiments, source data of Table 1 (nM there), read-out: IC50 for Na+ dysregulation) of the same compound?
Answer: Its IC50 is 4780 nM and 6620 nM and 3880 nM.

Question: What about the IC50 ([3]; genetically engineered parasites bearing L350H in PfATP4) of the same compound?
Answer: Its IC50 is 3.5 µM.

Question: And the IC50 ([3]; genetically engineered parasites bearing P412T in PfATP4)?
Answer: The IC50 was 10 µM.

Question: And the IC50 ([3]; parental wild-type parasites)?
Answer: Its IC50 is 0.075 µM.
